Entries after “also recorded” stand apart in the source; their conditions may differ.
Legend:
GSH adduct formation = type: in vitro ADME, human
Description: Cytochrome P450 (CYP) assays were conducted as previously described.[41] In brief, RNB-61 was incubated at a range of concentrations with the following components: pooled human liver microsomes, CYP probe substrate around the reported Km, and NADPH with a final concentration: 1 mM in 100 mM sodium phosphate buffer (pH 7.4). The conditions were optimized for a linear metabolic rate for the probe substrate reactions. The analysis of the samples was carried out by LC-MS/MS. The assays generated two endpoints: IC50 (μM) and percent inhibition at the highest acceptable test concentration (typically 50 μM; lower if the highest concentration data are rejected due to insolubility). […] (GSH) adduct formation data was assessed as reported in a previous study.[42] Briefly, RNB-61 was incubated with human liver microsomes to form reactive metabolites, and glutathione was added as a nucleophile to convert the reactive metabolites into stable conjugates that could be analyzed by MS.

[1] = system: renal I/R-induced acute kidney injury; assay: Ischemia/reperfusion (I/R) model of acute kidney injury; type: in vivo, C57BL/6 mice
Description: In the ischemia/reperfusion (I/R) model of acute kidney injury (AKI),[47],[48] the compounds were administered orally by gavage to C57BL/6 mice 30 min before ischemia obtained by clamping both renal arteries and veins for 25 min, followed by 24 h of reperfusion. Mice were anesthetized using xylazine (10 mg kg^–1)/ketamine (100 mg kg^–1) injected intraperitoneally. Sham treated mice were treated identically except for the temporary closure of the renal vessels. After 24 h, under reanesthesia, plasma was taken for biomarker analysis. Thereafter, mice still in deep anesthesia were sacrificed by cervical dislocation. Creatinine, BUN (blood urea nitrogen), NGAL (neutrophil gelatinase-associated lipocalin), osteopontin, and KIM1 (kidney injury molecule-1) levels were determined using the following commercially available standard assays: creatinine: Roche Diagnostics 03263991, BUN: Roche Diagnostics 04460715, NGAL: BioPorto, Kit046 + Kit042, osteopontin: R&D Systems, MOST00, KIM-1: Abnova, KA1064. To assess fibrotic effects, we used the unilateral ureteral obstruction (UOO) model in Sprague–Dawley rats.[49] For the UOO model, rats were sacrificed after 5, 8, and 11 days and the percentage of PicroSirius Red positive areas (indicator of collagen III–I deposition) were measured in 4 μm histological cross sections of the kidney after 2% paraformaldehyde perfusion fixation and paraffin embedding. The extend of kidney fibrosis was quantified based on PicroSirius Red staining of 10 renal sections about 1 mm apart from each kidney. The collagen–III-I-positive pixel counts were determined in the cortical aspect of each kidney section from 10 optical fields using a 40× objective. As the total area analyzed was identical for all kidneys under investigation, the absolute number of pixels was used as the relevant readout. Vehicle treated animals received saline gavage only. The details of PicroSirius Red staining were previously described.[22]

human P-gp = molecular target: T1, human P-gp (Homo sapiens, UniProt P08183); assay: P-gp assay in transfected LLC-PK1 cells; type: in vitro ADME; settings: read-out: P-gp transporter ER human
T1 construct: expressed in transfected cells; host or cells: LLC-PK1 (porcine kidney epithelial) cells
Description: (§1) The general permeability of the compound was assessed using the parallel artificial membrane permeability (PAMPA) assay and the permeability-glycoprotein (P-gp) assay was used to specifically test for brain penetration. PAMPA data were generated as previously reported by our group.[44] The P-gp assay, which evaluates the brain penetration of test compounds, was performed as described elsewhere.[45] Briefly, transfected porcine kidney epithelial (LLC-PK1) cells expressing human or mouse P-gp were cultured on 96-well semipermeable filter membrane plates (Millipore, Darmstadt, Germany). Cells formed a polarized monolayer with tight junctions that acted as a barrier between apical and basolateral compartments. P-gp was expressed in the apical-facing membrane of the monolayer (tightness confirmed using Lucifer yellow). […] The effect of P-gp was measured by expressing the efflux ratio of the unidirectional A > B and B > A Papp values. The mean permeability (A > B and B > A Papp) was determined in the absence of P-gp via the addition of the selective P-gp inhibitor, tariquidar.

mouse P-gp = molecular target: T2, mouse P-gp (Mus musculus, UniProt P21447); assay: P-gp assay in transfected LLC-PK1 cells; type: in vitro ADME; settings: read-out: P-gp transporter ER mouse
T2 construct: expressed in transfected cells; host or cells: LLC-PK1 (porcine kidney epithelial) cells
Description: as §1

cynomolgus CB2R = cynomolgus CB2R (Macaca fascicularis, UniProt G7NVV5); assay: cAMP assay in CHO cells; type: cell-based; settings: mean ± SD; read-out: EC50 cAMP assay, monkey CB2R
[2] = Fraction unbound in plasma; type: in vitro ADME
Text: Table 3 Physicochemical and ADMET Properties of RNB-61 | column: 481.556

ABHD12 = ABHD12 (Homo sapiens, UniProt Q8N2K0); assay: Endocannabinoid target profiling: ABHD12; type: biochemical
[3] = 3 mg kg^–1 p.o., 24 h reperfusion
[4] = maximal protection at 3–30 mg kg^–1

Sequence of ABHD12 (Q8N2K0 whole entry, species assumed, the tested form may be a part): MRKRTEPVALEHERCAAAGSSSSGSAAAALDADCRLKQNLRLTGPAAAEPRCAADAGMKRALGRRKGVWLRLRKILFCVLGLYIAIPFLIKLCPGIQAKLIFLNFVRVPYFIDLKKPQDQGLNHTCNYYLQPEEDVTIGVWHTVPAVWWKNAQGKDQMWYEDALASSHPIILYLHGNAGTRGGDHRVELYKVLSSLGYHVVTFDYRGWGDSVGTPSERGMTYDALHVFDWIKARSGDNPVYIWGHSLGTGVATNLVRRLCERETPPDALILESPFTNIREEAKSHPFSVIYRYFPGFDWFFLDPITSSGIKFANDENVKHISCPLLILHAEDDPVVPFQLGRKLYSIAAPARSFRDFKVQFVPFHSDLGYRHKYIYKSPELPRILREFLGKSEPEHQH
T1 sequence (P08183 whole entry): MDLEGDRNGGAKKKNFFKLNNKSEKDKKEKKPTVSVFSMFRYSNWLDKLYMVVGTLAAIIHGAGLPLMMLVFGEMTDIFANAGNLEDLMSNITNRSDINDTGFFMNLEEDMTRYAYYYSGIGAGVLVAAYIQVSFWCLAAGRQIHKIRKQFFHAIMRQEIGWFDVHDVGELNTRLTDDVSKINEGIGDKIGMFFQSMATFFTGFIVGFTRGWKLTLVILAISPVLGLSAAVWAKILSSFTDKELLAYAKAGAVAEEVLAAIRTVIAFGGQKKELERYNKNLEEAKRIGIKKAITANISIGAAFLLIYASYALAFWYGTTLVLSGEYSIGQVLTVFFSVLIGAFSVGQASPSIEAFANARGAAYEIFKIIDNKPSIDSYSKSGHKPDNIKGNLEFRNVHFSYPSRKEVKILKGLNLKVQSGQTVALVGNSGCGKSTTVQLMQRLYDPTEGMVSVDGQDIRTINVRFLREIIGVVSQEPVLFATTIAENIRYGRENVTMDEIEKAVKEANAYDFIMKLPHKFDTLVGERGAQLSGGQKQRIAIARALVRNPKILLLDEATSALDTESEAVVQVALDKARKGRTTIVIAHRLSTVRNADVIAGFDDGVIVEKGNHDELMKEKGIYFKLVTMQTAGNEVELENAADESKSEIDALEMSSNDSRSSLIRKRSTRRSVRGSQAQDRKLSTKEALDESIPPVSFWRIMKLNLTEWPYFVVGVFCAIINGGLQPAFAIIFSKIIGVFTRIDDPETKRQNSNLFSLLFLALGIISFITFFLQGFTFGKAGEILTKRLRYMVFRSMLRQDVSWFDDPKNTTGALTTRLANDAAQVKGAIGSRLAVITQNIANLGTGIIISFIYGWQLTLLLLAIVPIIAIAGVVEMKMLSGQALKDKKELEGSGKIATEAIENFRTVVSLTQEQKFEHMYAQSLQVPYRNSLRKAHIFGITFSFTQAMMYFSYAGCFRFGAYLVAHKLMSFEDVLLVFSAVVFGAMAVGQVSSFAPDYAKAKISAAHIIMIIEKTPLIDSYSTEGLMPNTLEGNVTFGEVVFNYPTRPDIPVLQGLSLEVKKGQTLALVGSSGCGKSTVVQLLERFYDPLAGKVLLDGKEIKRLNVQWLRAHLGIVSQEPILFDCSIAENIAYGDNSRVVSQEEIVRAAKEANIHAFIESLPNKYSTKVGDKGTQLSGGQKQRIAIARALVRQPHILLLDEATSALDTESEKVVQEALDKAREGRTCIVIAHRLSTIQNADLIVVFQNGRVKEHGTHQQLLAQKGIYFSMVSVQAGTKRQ
Sequence of cynomolgus CB2R (G7NVV5 1-360): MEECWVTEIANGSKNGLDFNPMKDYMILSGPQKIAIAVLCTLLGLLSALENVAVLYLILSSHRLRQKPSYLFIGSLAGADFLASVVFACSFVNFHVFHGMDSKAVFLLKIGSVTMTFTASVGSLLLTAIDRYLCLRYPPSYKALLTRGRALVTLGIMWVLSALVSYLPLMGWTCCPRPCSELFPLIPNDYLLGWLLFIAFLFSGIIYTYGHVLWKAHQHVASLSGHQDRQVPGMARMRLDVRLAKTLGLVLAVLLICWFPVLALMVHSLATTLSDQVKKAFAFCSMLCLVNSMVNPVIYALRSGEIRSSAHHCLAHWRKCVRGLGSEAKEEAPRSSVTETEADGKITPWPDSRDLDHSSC
T2 sequence (P21447 whole entry): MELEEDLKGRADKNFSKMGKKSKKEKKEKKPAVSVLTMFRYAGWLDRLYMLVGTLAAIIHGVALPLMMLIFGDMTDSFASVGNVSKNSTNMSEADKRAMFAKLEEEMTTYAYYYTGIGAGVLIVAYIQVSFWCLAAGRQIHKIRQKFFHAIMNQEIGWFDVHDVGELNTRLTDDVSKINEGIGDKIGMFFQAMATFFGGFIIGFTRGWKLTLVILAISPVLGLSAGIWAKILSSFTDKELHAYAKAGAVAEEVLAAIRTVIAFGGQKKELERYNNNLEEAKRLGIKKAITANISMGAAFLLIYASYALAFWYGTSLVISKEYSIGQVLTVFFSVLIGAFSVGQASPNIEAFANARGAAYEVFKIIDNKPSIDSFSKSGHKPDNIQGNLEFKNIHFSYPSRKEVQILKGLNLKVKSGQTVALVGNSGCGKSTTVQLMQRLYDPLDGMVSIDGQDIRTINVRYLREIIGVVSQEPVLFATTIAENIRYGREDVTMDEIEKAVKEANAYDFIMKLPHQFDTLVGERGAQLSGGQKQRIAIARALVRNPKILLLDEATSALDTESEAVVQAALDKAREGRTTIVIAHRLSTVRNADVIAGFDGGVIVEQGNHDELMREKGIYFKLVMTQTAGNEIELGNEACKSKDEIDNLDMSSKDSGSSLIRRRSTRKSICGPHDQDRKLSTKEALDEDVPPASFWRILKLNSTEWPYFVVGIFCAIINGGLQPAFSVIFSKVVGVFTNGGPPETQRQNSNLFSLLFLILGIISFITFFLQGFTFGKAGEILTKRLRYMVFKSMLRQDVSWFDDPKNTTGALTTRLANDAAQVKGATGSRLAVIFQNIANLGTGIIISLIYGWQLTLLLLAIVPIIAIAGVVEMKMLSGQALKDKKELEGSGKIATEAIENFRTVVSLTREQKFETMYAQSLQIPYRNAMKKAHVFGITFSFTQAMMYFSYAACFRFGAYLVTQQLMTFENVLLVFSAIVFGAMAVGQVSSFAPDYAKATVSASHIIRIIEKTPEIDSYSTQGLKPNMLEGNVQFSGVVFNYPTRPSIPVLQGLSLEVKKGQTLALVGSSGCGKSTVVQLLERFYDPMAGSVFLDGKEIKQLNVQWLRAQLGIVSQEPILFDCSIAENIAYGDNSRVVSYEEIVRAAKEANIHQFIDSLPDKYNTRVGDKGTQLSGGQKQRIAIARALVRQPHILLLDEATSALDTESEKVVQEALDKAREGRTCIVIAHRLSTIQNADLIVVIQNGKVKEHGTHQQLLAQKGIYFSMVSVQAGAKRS

Cn1c(C(C)(C)C)cc(=NC(=O)c2cc(C(F)(F)F)ccc2OCC(C)(C)O)n1CC1CCC1 [RNB-61]
GSH adducts (human liver microsomes) (GSH adduct formation): did not form any adducts; also recorded: no adducts detected
effect on I/R induced plasma creatinine levels ([1]; 0.1 mg kg^–1): No significant difference
reduction of BUN compared to vehicle [1, 3]: 30%
reduction of plasma creatinine compared to vehicle [1, 3]: 48%
reduction of plasma KIM-1 compared to vehicle [1, 4]: 50%
reduction of plasma NGAL compared to vehicle [1, 4]: 39%
reduction of plasma osteopontin compared to vehicle [1, 4]: 43%
dose from which KIM-1 release is inhibited ([1]; mouse, in vivo): 0.3 mg kg^–1
dose from which NGAL release is inhibited ([1]; mouse, in vivo): 0.3 mg kg^–1
dose from which osteopontin release is inhibited ([1]; mouse, in vivo): 3 mg kg^–1
efflux ratio at 3 h (human P-gp): 40.6
efflux ratio at 3 h (mouse P-gp): 26.8
EC50 (cynomolgus CB2R): 0.7 ± 0.03 nM
fraction unbound ([2]; human): 0.019
fraction unbound ([2]; mouse): 0.019
fraction unbound ([2]; rat): 0.017
IC50 (ABHD12; Table S1, read-out: ABHD12 (Ki, IC50)): > 10000 nM
inhibition of EC hydrolysis by ABHD12 (ABHD12; screening concentration 10 μM): did not inhibit

From paper PMC11320734 (ACS Pharmacology & Translational Science, 2024)
